# Source: patent US20070167438A1, “Treatment of substance abuse” (Wyeth, priority 2006, published 2007)
# System: Rats
# Assay: Open field locomotor activity (distance moved, zones crossed) with or without cocaine
# Format: in vivo
# Conditions: open field 1 hour after dosing, five minute test
# Description: Using (9aR,12aS)-4,5,6,7,9,9a,10,11,12,12a-decahydrocyclopenta[c][1,4]diazepino[6,7,1-ij]quinoline hydrochloride (Compound 1) as an example, the Rats were dosed either with vehicle or with cocaine in the presence or absence of Compound 1 (1.7 mg/kg. sc). One hour after dosing (i.p. & s.c.), rats were put in a open field, where distance moved and zones crossed were recorded by the ethovision program.
# Animals were brought to the lab room 1 hour before the start of the experiment. Rats were injected with compound(s) 1 hour before being placed in the open field. Rats were then placed in open field, and the test lasted for five minutes.
smiles,measurement,setting,value
"Cl.c1cc2c3c(c1)[C@H]1CCC[C@H]1CN3CCNC2 [Compound 1, (9aR,12aS)-4,5,6,7,9,9a,10,11,12,12a-decahydrocyclopenta[c][1,4]diazepino[6,7,1-ij]quinoline hydrochloride]",reversal of the hyperactivity produced by cocaine,Compound 1 1.7 mg/kg sc + cocaine 3 mg/kg ip,completely reversed
same,effect on locomotor activity alone,Compound 1 1.7 mg/kg sc + vehicle,no effect
